Reference: US20050112573A1, “Method of detecting toxic substance” (priority 2001, published 2005)
Like-named read-outs stand apart in the source and are kept apart here.

What was measured:
Type in all cases: cell-based, Saccharomyces cerevisiae W303
[1] = system: promoter of yeast gene YOR382w
Source text: (§1) The inventors of the present application understood that the induction of certain yeast genes by toxic substances is caused by the activation of the promoters of the genes by the toxic substances. Thus, the inventors prepared a vector that comprised a polynucleotide sequence comprising the promoter of the yeast gene, which sequence is operably linked to a polynucleotide encoding a marker protein; and transformed yeast cells with the vector. […] The working examples hereinafter illustrate the preparation of such vectors, transformation of yeast cells by use of said vectors, and the detection of toxic substances by use of the transformed cells.
(§2) Promoter assay is a method for determining variations of the level of intracellular genes without destroying cells on the basis of the level of expressed marker genes instead of the expressed mRNA. The gene selected to detect a chemical substance is expressed in the absence of chemical substances, and thus a marker protein also occurs in the absence of chemical substances. In the method according to the present invention, the behavior of yeast genes on the addition of test materials is determined on the basis of the level of expressed marker protein so that the presence or the absence, and the kind of toxic chemical substances are predicted. Thus, it is desired that the production of marker proteins is lower in the absence of chemical substances, and the production of marker proteins is higher in the presence of chemical substances.
(§3) Type YEp shuttle vector pYES2 (pYES2, Cat no: V825-20, Invirtogen Corporation, USA), which can be replicated both in E. coli. and yeast was used as vector (R. W. Old, S. B. Primrose Principles of Gene Manipulation 5th Ed., BAIFUKAN CO., LTD, pp138-165, pp.234-263, 2000). The portion of vector pQBI 63 (Cat no.54-0082, Wako Pure Chemical Industries, Ltd.) corresponding to a marker protein GFP was used as the polynucleotide encoding GFP (SEQ ID No: 6). First, the GFP polynucleotide was inserted into the multiple cloning sites of pYES2 to give a vector. Thereafter, the GAL1 promoter of pYES2 was replaced with the polynucleotide comprising the promoter sequence of the intended yeast gene YOR382w (SEQ ID No: 3) to give an intended plasmid vector. Suitable restriction enzymes were selected, and the insertion of the polynucleotide comprising GFP and the promoter sequence was conducted.
(§4) Next, the yeast Saccharomyces cerevisiae W303 was transformed with the resultant plasmid vector according to the following procedures: • 1) Incubating the yeast Saccharomyces cerevisiae W303 in 200 ml of SD medium under shaking until OD 660 reaches 0.5; • 2) Suspending the collected cells in 5 ml of TE-buffer; • 3) Adding 250 μL of 2.5M lithium acetate; • 4) Dispending each 300 μl, adding 10 μl of above plasmid vector thereto, then incubating the suspensions at 30° C. for 30 minutes; • 5) Adding 700 μl of 50% PEG4000, and incubating the mixture under shaking at 30° C. for 60 minutes; • 6) Giving heat shock (42° C., 5 minutes), and then immediately cooling the mixture; • 7) Washing the mixture twice with 1M sorbitol; and • 8) Seeding it on agar plates made of minimum essential medium.
(§5) The cells of SC-YOR382W-pQBI as prepared in Example 4 were contacted to one of the following compounds. The yeast cells SC-YOR382W-pQBI were incubated at 25° C. in SD medium (Yeast nitrogen base without amino acids (Difco 0919-15)+glucose+amino acids (adenine, histidine, tryptophan)). One of toxic chemical substances as shown below was added to the cells at logarithmic growth phase, and then the cells were further incubated for two hours.

[2] = system: promoter of yeast gene YCR102c
Source text: as §1, §2
as §3, with “PQBI” for “pQBI”, “GALL” for “GAL1”, “YCR102c” for “YOR382w”, “2)” for “3)”
as §4
as §5, with “SC-YCR102C-pQBI” for “SC-YOR382W-pQBI”, “3” for “4”

[3] = system: promoter of yeast gene YKL071w
Source text: as §1, §2
as §3, with “YKL071w” for “YOR382w”, “1)” for “3)”
as §4
as §5, with “SC-YKL071W-pQBI” for “SC-YOR382W-pQBI”, “2” for “4”

[4] = cells SC-YOR382W-pQBI, 2 hours incubation with the substance at the concentration printed in its row (column Concentrations), GFP fluorescence vs control without chemical
[5] = cells SC-YCR102C-pQBI, 2 hours incubation with the substance at the concentration printed in its row (column Concentrations), GFP fluorescence vs control without chemical
[6] = SC-YKL071W-pQBI cells, 25° C., two hours, each substance at the concentration given
[7] = SC-YOR382W-pQBI cells, summary of Table 12

Compound | Fluorescence [1, 4] | Fluorescence [2, 5] | Fluorescens [3, 6] | expression of GFP [1, 7] | further results
γ-hexachlorocyclohexane [(7)] | − (the number of the cells having a higher fluorescence than the control was under 1%) | − (the number of the cells having a higher fluorescence than the control was under 1%) | − (the number of the cells having a higher fluorescence than the control was under 1%) | – | –
CdCl2 [(2)] | − (the number of the cells having a higher fluorescence than the control was under 1%) | − (the number of the cells having a higher fluorescence than the control was under 1%) | − (the number of the cells having a higher fluorescence than the control was under 1%) | – | –
CN(C)C(=S)SSC(=S)N(C)C [(10), Tetramethylthiuram disulfide] | – | – | – | – | expression of GFP ([2]; SC-YCR102C-pQBI cells, summary of Table 11): induced the expression of GFP; expression of GFP ([3]; SC-YKL071W-pQBI cells, summary of Table 10): induced the expression of GFP
manganese ethylenebis(dithiocarbamate) [(8)] | ++ (2% or more) | − (the number of the cells having a higher fluorescence than the control was under 1%) | − (the number of the cells having a higher fluorescence than the control was under 1%) | induced the expression of GFP | –
Oc1cc(Cl)c(Cl)cc1Cl [(6), 2,4,5-trichlorophenol] | – | – | – | – | expression of GFP [1]: induced the expression of GFP
[CH3][Hg][Cl] [methylmercury chloride] | − (the number of the cells having a higher fluorescence than the control was under 1%) | − (the number of the cells having a higher fluorescence than the control was under 1%) | − (the number of the cells having a higher fluorescence than the control was under 1%) | – | –
Na2As [(1)] | − (the number of the cells having a higher fluorescence than the control was under 1%) | − (the number of the cells having a higher fluorescence than the control was under 1%) | − (the number of the cells having a higher fluorescence than the control was under 1%) | – | –
[Cl][Ni][Cl] [nickel (II) chloride] | – | – | – | – | Fluorescence [1]: ++ (key: −: the number of the cells having a higher fluorescence than the control was under 1%; +: between 1% and 2%; ++: 2% or more); expression of GFP [1]: induced the expression of GFP; Fluorescence [2]: − (key: −: the number of the cells having a higher fluorescence than the control was under 1%; +: between 1% and 2%; ++: 2% or more); Fluorescens [3]: − (key: −: the number of the cells having a higher fluorescence than the control was under 1%; +: between 1% and 2%; ++: 2% or more)
C[S+](C)[O-] [(15), dimethylsulfoxide] | – | – | – | induced the expression of GFP | –
O=[N+]([O-])c1cc[n+]([O-])c2ccccc12 [(5), 4-nitroquinolin-N-oxide] | – | – | – | induced the expression of GFP | –
CCCCC(CC)COC(=O)c1ccccc1C(=O)OCC(CC)CCCC (stereo not drawn) | − (the number of the cells having a higher fluorescence than the control was under 1%) | − (the number of the cells having a higher fluorescence than the control was under 1%) | − (the number of the cells having a higher fluorescence than the control was under 1%) | – | –
CCN(CC)C(=O)SCc1ccc(Cl)cc1 [S-4-Chlorobenzyl-N,N-diethylthiocarbamate] | − (the number of the cells having a higher fluorescence than the control was under 1%) | − (the number of the cells having a higher fluorescence than the control was under 1%) | − (the number of the cells having a higher fluorescence than the control was under 1%) | – | –
CCOC(=O)CC(SP(=S)(OC)OC)C(=O)OCC (stereo not drawn) [malathon] | ++ (2% or more) | − (the number of the cells having a higher fluorescence than the control was under 1%) | − (the number of the cells having a higher fluorescence than the control was under 1%) | induced the expression of GFP | –
[K+].[K+].[O]=[Cr](=[O])([O-])[O][Cr](=[O])(=[O])[O-] [potassium bichromate] | ++ (2% or more) | − (the number of the cells having a higher fluorescence than the control was under 1%) | − (the number of the cells having a higher fluorescence than the control was under 1%) | induced the expression of GFP | –
O=S(=O)([O-])[O-].[Cu+2] [copper sulfate (II)] | – | – | – | – | Fluorescence [1]: − (key: −: the number of the cells having a higher fluorescence than the control was under 1%; +: between 1% and 2%; ++: 2% or more); Fluorescence [2]: − (key: −: the number of the cells having a higher fluorescence than the control was under 1%; +: between 1% and 2%; ++: 2% or more); Fluorescens [3]: − (key: −: the number of the cells having a higher fluorescence than the control was under 1%; +: between 1% and 2%; ++: 2% or more)
[Cl][Sn]([c]1ccccc1)([c]1ccccc1)[c]1ccccc1 [triphenyltin chloride] | − (the number of the cells having a higher fluorescence than the control was under 1%) | − (the number of the cells having a higher fluorescence than the control was under 1%) | − (the number of the cells having a higher fluorescence than the control was under 1%) | – | –
